Results published in patent publication US9850203B2, “Autotaxin inhibitor compounds” (PharmAkea, Inc., priority 2013, dated 2017).

Molecular target: human autotaxin (ATX) (Homo sapiens (Human), UniProt Q13822)
Assay: Human Autotaxin Assay
Format: biochemical
Conditions: concentrated conditioned media from Hep3B cells; LPC substrate, choline release
Procedure: ATX activity is assayed in concentrated conditioned media from Hep3B human hepatocellular carcinoma cells by measuring the amount of choline released from the substrate, lysophosphatidylcholine (LPC) as it is cleaved to LPA. Conditioned media is collected from confluent Hep3B cells and concentrated 20-fold using Centriprep-30 filter devices (Millipore). To assay for autotaxin inhibition, 10-20 μL of the concentrated conditioned media is incubated with 2.5 μL of a test compound in DMSO and 72.5-82.5 μL lyso-PLD buffer (100 mM Tris pH 9, 500 mM NaCl, 5 mM MgCl2, 5 mM CaCl2, 0.05% Triton X-100 in the presence or absence of 0.2% fatty-acid-free human serum albumin) for 15 min at 37° C. After the 15 min incubation, 5 uL of 2 mM LPC (14:0; Avanti Polar Lipids Cat#855575C) diluted in lyso-PLD buffer is added for a final concentration of 100 uM and the incubation continues for 1.5-3 hours at 37° C.

Cc1c(Sc2cccc(C(=O)O)c2)c2ccc(Cl)c(F)c2n1CC(=O)N1CCCc2ccccc21 [Compound 1-36, 3-((6-Chloro-1-(2-(3,4-dihydroquinolin-1(2H)-yl)-2-oxoethyl)-7-fluoro-2-methyl-1H-indol-3-yl)thio)benzoic acid]
IC50: ≤ 500 nM

Cc1c(Sc2cccc(C(=O)O)c2)c2ccc(Cl)c(F)c2n1CC(=O)N1CCCC(O)(C(F)(F)F)C1 (centres unmarked) [Compound 1-83, 3-((6-Chloro-7-fluoro-1-(2-(3-hydroxy-3-(trifluoromethyl)piperidin-1-yl)-2-oxoethyl)-2-methyl-1H-indol-3-yl)thio)benzoic acid]
IC50: ≤ 500 nM

Cc1c(Sc2cccc(C(=O)O)c2)c2ccc(Cl)c(F)c2n1CC(=O)N1CC2CCCCC2C1 (centres unmarked) [Compound 1-98, 3-((6-Chloro-7-fluoro-1-(2-(hexahydro-1H-isoindol-2(3H)-yl)-2-oxoethyl)-2-methyl-1H-indol-3-yl)thio)benzoic acid]
IC50: ≤ 500 nM

Cc1c(Sc2cccc(C(=O)O)c2F)c2ccc(Cl)c(F)c2n1CC(=O)N1CC2(CCC2)c2c(F)cccc21 [Compound 3-96, 3-((6-Chloro-7-fluoro-1-(2-(4′-fluorospiro[cyclobutane-1,3′-indolin]-1′-yl)-2-oxoethyl)-2-methyl-1H-indol-3-yl)thio)-2-fluorobenzoic acid]
IC50: ≤ 500 nM

Cc1c(Sc2cccc(C(=O)O)c2)c2ccc(Cl)c(F)c2n1CC(=O)N1CCC12CCN(C)CC2 [Compound 1-87, 3-((6-Chloro-7-fluoro-2-methyl-1-(2-(7-methyl-1,7-diazaspiro[3.5]nonan-1-yl)-2-oxoethyl)-1H-indol-3-yl)thio)benzoic acid]
IC50: ≤ 500 nM

Cc1c(Sc2cccc(C(=O)O)c2)c2ccc(Cl)c(F)c2n1CCC(=O)N1CCCC1 [Compound 1-25, 3-((6-Chloro-7-fluoro-2-methyl-1-(3-oxo-3-(pyrrolidin-1-yl)propyl)-1H-indol-3-yl)thio)benzoic acid]
IC50: ≤ 500 nM

Cc1c(Sc2cccc(C(=O)O)c2)c2ccc(Cl)c(F)c2n1CC(=O)N1CCC2(CC2)C1 [Compound 1-95, 3-((6-Chloro-7-fluoro-2-methyl-1-(2-oxo-2-(5-azaspiro[2.4]heptan-5-yl)ethyl)-1H-indol-3-yl)thio)benzoic acid]
IC50: ≤ 500 nM

CON(C)C(=O)Cn1c(C2CC2)c(Sc2cccc(C(=O)O)c2F)c2ccc(Cl)c(F)c21 [Compound 5-7, Sodium 3-((6-chloro-2-cyclopropyl-7-fluoro-1-(2-(methoxy(methyl)amino)-2-oxoethyl)-1H-indol-3-yl)thio)-2-fluorobenzoate]
IC50: 500 to 3000 nM

Cc1c(Sc2cccc(C(=O)O)c2F)c2ccc(Cl)c(F)c2n1CC(=O)N1C[C@H](O)[C@@H](N2CCOCC2)C1 [Compound 2-65, 3-((6-Chloro-7-fluoro-1-(2-((3S,4S)-3-hydroxy-4-morpholinopyrrolidin-1-yl)-2-oxoethyl)-2-methyl-1H-indol-3-yl)thio)-2-fluorobenzoic acid]
IC50: ≤ 500 nM

Cc1c(Sc2cccc(C(=O)O)c2F)c2ccc(Cl)c(F)c2n1CC(=O)N1CC(CN(C)C)C1 [Compound 2-71, 3-((6-Chloro-1-(2-(3-((dimethylamino)methyl)azetidin-1-yl)-2-oxoethyl)-7-fluoro-2-methyl-1H-indol-3-yl)thio)-2-fluorobenzoic acid]
IC50: ≤ 500 nM

Cc1c(Sc2cccc(C(=O)O)c2)c2ccc(Cl)c(F)c2n1CC(=O)N1CCC(c2ccncc2)C1 (centres unmarked) [Compound 1-89, 3-((6-Chloro-7-fluoro-2-methyl-1-(2-oxo-2-(3-(pyridin-4-yl)pyrrolidin-1-yl)ethyl)-1H-indol-3-yl)thio)benzoic acid]
IC50: ≤ 500 nM

Cc1c(Sc2cccc(C(=O)O)c2)c2ccc(Cl)c(F)c2n1CC(=O)N1CCC(Cc2ccc(F)cc2)C1 (single isomer, unassigned; enantiomer b) [Compound 1-66, 3-((6-Chloro-7-fluoro-1-(2-(3-(4-fluorobenzyl)pyrrolidin-1-yl)-2-oxoethyl)-2-methyl-1H-indol-3-yl)thio)benzoic acid Enantiomer B]
IC50: 500 to 3000 nM

Cc1c(Sc2cccc(C(=O)O)c2)c2ccc(Cl)c(F)c2n1CC(=O)N1CCC(Cc2cnn(C)c2)C1 (centres unmarked) [Compound 1-93, 3-((6-Chloro-7-fluoro-2-methyl-1-(2-(3-((1-methyl-1H-pyrazol-4-yl)methyl)pyrrolidin-1-yl)-2-oxoethyl)-1H-indol-3-yl)thio)benzoic acid]
IC50: ≤ 500 nM

Cc1c(Sc2cccc(C(=O)O)c2)c2ccc(Cl)c(F)c2n1CC(=O)N1CC2C(C1)C2C(N)=O [Compound 1-51, 3-((1-(2-((1R,5S,6R)-6-Carbamoyl-3-azabicyclo[3.1.0]hexan-3-yl)-2-oxoethyl)-6-chloro-7-fluoro-2-methyl-1H-indol-3-yl)thio)benzoic acid]
IC50: ≤ 500 nM

COc1ccc2c(c1)CCN2C(=O)Cn1c(C)c(Sc2cccc(C(=O)O)c2)c2ccc(Cl)c(F)c21 [Compound 1-58, 3-((6-Chloro-1-(2-(5-methoxyindolin-1-yl)-2-oxoethyl)-7-fluoro-2-methyl-1H-indol-3-yl)thio)benzoic acid]
IC50: ≤ 500 nM

CCCC1CCN(C(=O)Cn2c(C)c(Sc3cccc(C(=O)O)c3)c3ccc(Cl)c(F)c32)C1 (centres unmarked) [Compound 1-77, 3-((6-Chloro-7-fluoro-2-methyl-1-(2-oxo-2-(3-propylpyrrolidin-1-yl)ethyl)-1H-indol-3-yl)thio)benzoic acid]
IC50: ≤ 500 nM

Cc1c(Sc2cccc(C(=O)O)n2)c2ccc(Cl)c(F)c2n1CC(=O)N1CC2(CC2)c2ccccc21 [Compound 2-54, 6-((6-Chloro-7-fluoro-2-methyl-1-(2-oxo-2-(spiro[cyclopropane-1,3′-indolin]-1′-yl)ethyl)-1H-indol-3-yl)thio)picolinic acid]
IC50: ≤ 500 nM

Cc1c(Sc2cccc(C(=O)O)c2F)c2ccc(Cl)c(F)c2n1CC(=O)N1CC(C#N)C1 [Compound 2-67, 3-((6-Chloro-1-(2-(3-cyanoazetidin-1-yl)-2-oxoethyl)-7-fluoro-2-methyl-1H-indol-3-yl)thio)-2-fluorobenzoic acid]
IC50: ≤ 500 nM

O=C(O)c1cccc(Sc2c(C3CC3)n(CC(=O)N3CCc4ccccc43)c3c(F)c(Cl)ccc23)c1F [Compound 4-29, Sodium 3-((6-chloro-2-cyclopropyl-7-fluoro-1-(2-(indolin-1-yl)-2-oxoethyl)-1H-indol-3-yl)thio)-2-fluorobenzoate]
IC50: ≤ 500 nM

Cc1c(Sc2cccc(C(=O)O)c2)c2ccc(Cl)c(F)c2n1CC(=O)N1CCC(OCc2ccc(F)c(F)c2)CC1 [Compound 1-13, 3-((6-Chloro-1-(2-(4-((3,4-difluorobenzyl)oxy)piperidin-1-yl)-2-oxoethyl)-7-fluoro-2-methyl-1H-indol-3-yl)thio)benzoic acid]
IC50: ≤ 500 nM

Cc1c(Sc2cccc(C(=O)O)c2)c2ccc(Cl)c(F)c2n1CC(=O)N1CCCCC1 [Compound 1-10, 3-((6-Chloro-7-fluoro-2-methyl-1-(2-oxo-2-(piperidin-1-yl)ethyl)-1H-indol-3-yl)thio)benzoic acid]
IC50: ≤ 500 nM

Cc1c(Sc2cccc(C(=O)O)c2F)c2ccc(Cl)c(F)c2n1CC(=O)N1CC2(CCC2)c2ccccc21 [Compound 3-220, 3-((6-Chloro-7-fluoro-2-methyl-1-(2-oxo-2-(spiro[cyclobutane-1,3′-indolin]-1′-yl)ethyl)-1H-indol-3-yl)thio)-2-fluorobenzoic acid]
IC50: ≤ 500 nM

Cc1c(Sc2cccc(C(=O)O)c2)c2ccc(Cl)c(F)c2n1CC(=O)N1CC2(CNC(=O)C2)C1 [Compound 1-49, 3-((6-Chloro-7-fluoro-2-methyl-1-(2-oxo-2-(7-oxo-2,6-diazaspiro[3,4]octan-2-yl)ethyl)-1H-indol-3-yl)thio)benzoic acid]
IC50: ≤ 500 nM

Cc1c(Sc2cccc(C(=O)O)c2F)c2ccc(Cl)c(F)c2n1CC(=O)N1CCC(O)(c2ccccc2)C1 (centres unmarked) [Compound 2-68, 3-((6-Chloro-7-fluoro-1-(2-(3-hydroxy-3-phenylpyrrolidin-1-yl)-2-oxoethyl)-2-methyl-1H-indol-3-yl)thio)-2-fluorobenzoic acid]
IC50: ≤ 500 nM

Cc1c(Sc2cccc(C(=O)O)c2F)c2ccc(Cl)c(F)c2n1CC(=O)N1CC(O)(C2CC2)C1 [Compound 2-63, 3-((6-Chloro-1-(2-(3-cyclopropyl-3-hydroxyazetidin-1-yl)-2-oxoethyl)-7-fluoro-2-methyl-1H-indol-3-yl)thio)-2-fluorobenzoic acid]
IC50: ≤ 500 nM

Cc1ccc2c(c1)CCN2C(=O)Cn1c(C)c(Sc2cccc(C(=O)O)c2)c2ccc(Cl)c(F)c21 [Compound 1-92, 3-((6-Chloro-7-fluoro-2-methyl-1-(2-(5-methylindolin-1-yl)-2-oxoethyl)-1H-indol-3-yl)thio)benzoic acid]
IC50: ≤ 500 nM

Cc1c(Sc2cccc(C(=O)O)c2F)c2ccc(Cl)c(F)c2n1CCN1CC2(CC2)c2ccccc21 [Compound 2-74, Sodium 3-((6-chloro-7-fluoro-2-methyl-1-(2-(spiro[cyclopropane-1,3′-indolin]-1′-yl)ethyl)-1H-indol-3-yl)thio)-2-fluorobenzoate]
IC50: ≤ 500 nM

Cc1c(Sc2cccc(C(=O)O)c2F)c2ccc(Cl)c(F)c2n1CCN1CCc2ccccc21 [Compound 2-73, Sodium 3-((6-chloro-7-fluoro-1-(2-(indolin-1-yl)ethyl)-2-methyl-1H-indol-3-yl)thio)-2-fluorobenzoate]
IC50: ≤ 500 nM

Cc1c(Sc2cccc(C(=O)O)c2)c2ccc(Cl)c(F)c2n1CC(=O)N1CCc2ccccc21 [Compound 1-14, 3-((6-Chloro-7-fluoro-1-(2-(indolin-1-yl)-2-oxoethyl)-2-methyl-1H-indol-3-yl)thio)benzoic acid]
IC50: ≤ 500 nM
